Experimental data as given in publication PMC10165273, “Itch receptor MRGPRX4 interacts with the receptor activity–modifying proteins” (The Journal of Biological Chemistry, 2023).
Values joined by “and” are separate entries in the source; they are usually repeats but may differ in a detail not shown here. Equal entries are not always repeated.

Columns and labels:
[1] = target: T1, MRGPRX4 + RAMP3 (Homo sapiens, UniProt Q96LA9); assay: IP1 accumulation, MRGPRX4 coexpressed with RAMP3; type: cell-based; design: key: % IP1; unstimulated mock = 0%, fully stimulated MRGPRX4 = 100%; settings: Figure 4c-f; agonist 100µM; X4:ramp3 1:2; MRGPRX4 = 100
T1 construct: expressed in transfected cells; host or cells: HEK293T
T1 sequence (Q96LA9 whole entry): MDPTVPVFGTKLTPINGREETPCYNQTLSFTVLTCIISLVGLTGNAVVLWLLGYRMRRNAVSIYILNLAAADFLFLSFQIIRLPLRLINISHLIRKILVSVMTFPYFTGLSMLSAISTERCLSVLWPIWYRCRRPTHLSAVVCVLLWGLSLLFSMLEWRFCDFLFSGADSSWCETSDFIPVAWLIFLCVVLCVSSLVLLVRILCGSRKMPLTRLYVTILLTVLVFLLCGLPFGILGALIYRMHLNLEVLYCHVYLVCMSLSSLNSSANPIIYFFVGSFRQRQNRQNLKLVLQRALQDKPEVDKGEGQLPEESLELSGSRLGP

[2] = system: mock-transfected HEK293T cells; assay: IP1 accumulation, mock-transfected cells; type: cell-based, human; design: IP1 Basal / IP1 span / IP1 Emax / IP1 accumulation, dose-response (Figure 1a) / IP1 accumulation with YM (Figure 1c) / IP1 accumulation: unit not given here; settings: pcDNA (mock), individual replicates
Protocol: (§1) HEK293T cells were transfected with 1 pg/cell of MRGPRX4 DNA, and the amount of DNA was kept constant at 2 pg/cell with pcDNA3.1(+) empty vector, unless otherwise specified. Twenty four hours after transfection, IP1 assay was performed as previously described ([51]). When applicable, cells were treated with 1 μM YM254890 (YM) or different concentrations of U73122 for 1 h prior to addition of agonist or buffer. After incubation for 2 h, HTRF reagents and IP1 calibration standards were added and incubated for 2 h in the dark at room temperature. Time-resolved fluorescence signals were read on the BioTek Synergy NEO-TRF Hybrid multi-mode reader (BioTek Instruments). All data were carried out in three independent experiments with three technical replicate each.
Validation of CALCRL constructs was assayed by cotransfecting HEK293T cells with different tagged versions of CALCRL alone or with each RAMP and with the promiscuous Gqs5 Gq chimera protein, at a respective DNA ratio of 1:1:0.5. Gqs5 is an engineered Gq protein containing the last five amino acid residues of Gs, which allows Gs-coupled GPCRs to signal through Gq downstream signaling pathways ([55]). The homogenous transfection method described above was used for all DNA mixes. CALCRL:RAMP2:Gqs5-transfected cells served as positive control for RAMP functionality.
(§2) Data reduction, standard calibration, and transformation of HTRF data were performed as previously described ([51]). Normalized IP1 values were calculated relative to the unstimulated mock-transfected cells (set to 0%) and fully stimulated MRGPRX4 (alone if applicable) (set to 100%).

[3] = target: T1, MRGPRX4 + RAMP3; assay: IP1 accumulation, MRGPRX4 coexpressed with RAMP3; type: cell-based; design: key to IP1 Basal / response to agonist, X4:ramp3.I:0.25 / response to agonist, X4:ramp3.I:0.5 / response to agonist, X4:ramp3.I:1: % IP1; unstimulated mock = 0%, fully stimulated MRGPRX4 = 100%; settings: Figure 4c-f, agonist 100µM, MRGPRX4 = 100
Protocol: as §1
(§3) For RAMP DNA titration assay, HEK293T cells were cotransfected with a constant amount of 1 pg/cell of FLAG-MRGPRX4-GFP10-1D4 to which a serial dilution of 1, 0.75, 0.5, 0.25, or 0 pg/cell of each HA-RAMP-OLLAS was added. For a homogenous transfection of MRGPRX4, a master mix of MRGPRX4 DNA was made prior to addition of the RAMP DNA. […]
as §2

[4] = target: T2, MRGPRX4 + RAMP1 (Homo sapiens, UniProt Q96LA9); assay: IP1 accumulation, MRGPRX4 coexpressed with RAMP1; type: cell-based; design: key to IP1 Basal / response to agonist, X4:ramp1.I:1 / response to agonist, X4:ramp1.I:2 / response to agonist, X4:ramp1.I:0.25 / response to agonist, X4:ramp1.I:0.5: % IP1; unstimulated mock = 0%, fully stimulated MRGPRX4 = 100%; settings: Figure 4c-f, agonist 100µM, MRGPRX4 = 100
T2 construct: expressed in transfected cells; host or cells: HEK293T
T2 sequence (Q96LA9 whole entry): as above
Protocol: as §1
For a homogenous transfection of MRGPRX4, a master mix of MRGPRX4 DNA was made prior to addition of the RAMP DNA. […]
as §2

[5] = target: T3, MRGPRX4 + RAMP2 (Homo sapiens, UniProt Q96LA9); assay: IP1 accumulation, MRGPRX4 coexpressed with RAMP2; type: cell-based; design: key to response to agonist, X4:ramp2.I:2: % IP1: mock-transfected unstimulated = 0%, fully stimulated MRGPRX4 = 100%; key to IP1 Basal / response to agonist, X4:ramp2.I:0.25 / response to agonist, X4:ramp2.I:0.5 / response to agonist, X4:ramp2.I:1: % IP1; unstimulated mock = 0%, fully stimulated MRGPRX4 = 100%; settings: Figure 4c-f, agonist 100µM, MRGPRX4 = 100
T3 construct: expressed in transfected cells; host or cells: HEK293T
T3 sequence (Q96LA9 whole entry): as above
Protocol: as §1, §3, §2

[6] = target: T4, MRGPRX4 (Homo sapiens, UniProt Q96LA9); assay: IP1 accumulation HTRF assay, MRGPRX4; type: cell-based; design: key to IP1 Basal / IP1 accumulation with YM (Figure 1c) / response to agonist, MRGPRX4 / IP1 accumulation: % IP1: unstimulated mock-transfected = 0%, fully stimulated MRGPRX4 = 100%
T4 construct: expressed in transfected cells; host or cells: HEK293T
T4 sequence (Q96LA9 whole entry): as above
Protocol: as §1
For characterization of the Tet-On Nluc-HT7-MRGPRX4-GFP10-1D4 construct, HEK293T cells were transfected as previously described with some modifications. Dox dose-response of NLuc-HT7-MRGPRX4-GFP10-1D4 DNA titration was assayed by transfecting HEK293T cells with either 1 or 2 pg/cell of NLuc-HT7-MRGPRX4-GFP10-1D4 construct. Receptor expression was induced 4 h after transfection with addition of different concentrations of dox for 20 h. For the RAMP DNA titration assay, cells were cotransfected with a constant amount of 1 pg/cell of NLuc-HT7-MRGPRX4-GFP10-1D4 DNA and 1, 0.75, 0.5, or 0 pg/cell of each HA-RAMP-OLLAS with the homogenous transfection method. Four hours after transfection, receptor expression was induced with addition of 1000 ng/ml dox. Twenty hours after induction, IP1 assay was performed.
as §2

With `C[C@H](CCC(=O)O)[C@H]1CC[C@H]2[C@@H]3[C@@H](O)C[C@@H]4C[C@H](O)CC[C@]4(C)[C@H]3CC[C@]12C` [UDCA, ursodeoxycholic acid] the “response to agonist, X4:ramp3.I:2” value [1] was 54.7688 and 68.6572, the “IP1 accumulation, dose-response (Figure 1a)” value (shortened to “IP1 accumulation”) ([2]; log [agonist] (M) -4) was 0.4812 and 0.4346 and 0.8349 and -0.1011 and 0.2178 and -0.3214 and 0.5013 and -0.2736 and -1.513 and -0.6571 and 0.03201 and -0.9921 and the “IP1 accumulation” value ([2]; log [agonist] (M) -4.95424) was 0.8578 and 0.7057 and 0.8792 and 0.1679 and 0.2632 and -0.1306 and 0.2729 and -0.3135 and 0.01077 and -0.3984 and 1.094 and -0.3997. For the same molecule, the “IP1 accumulation” value ([2]; log [agonist] (M) -5.90849) was 0.6444 and 0.5533 and 0.8424 and 0.3166 and 0.4567 and -0.2351 and 0.4796 and -0.05346 and 0.7094 and 0.5317 and 1.212 and 0.8514, the “IP1 accumulation” value ([2]; log [agonist] (M) -6.86273) was 1.003 and 1.057 and 1.14 and 0.6057 and 0.714 and 0.2582 and 0.7883 and 0.3494 and the “response to agonist, X4:ramp3.I:0.25” value ([3]; X4:ramp3 1:0.25) was 86.9905 and 87.7685. The “response to agonist, X4:ramp3.I:0.5” value ([3]; X4:ramp3 1:0.5) was 74.5043 and 88.6761, the “response to agonist, X4:ramp3.I:1” value ([3]; X4:ramp3 1:1) was 78.3418 and 68.7873 and the “response to agonist, X4:ramp1.I:0.25” value ([4]; X4:ramp1 1:0.25) was 100.75 and 106.142. The “response to agonist, X4:ramp1.I:0.5” value ([4]; X4:ramp1 1:0.5) was 100.618 and 106.983, the “response to agonist, X4:ramp1.I:1” value ([4]; X4:ramp1 1:1) was 95.1306 and 98.4249 and the “response to agonist, X4:ramp1.I:2” value ([4]; X4:ramp1 1:2) was 83.6233 and 101.678. The “response to agonist, X4:ramp2.I:0.25” value ([5]; X4:ramp2 1:0.25) was 79.4398 and 88.1338, the “response to agonist, X4:ramp2.I:0.5” value ([5]; X4:ramp2 1:0.5) was 67.697 and 77.1393 and the “response to agonist, X4:ramp2.I:1” value ([5]; X4:ramp2 1:1) was 40.116 and 40.4903. For the same molecule, the “response to agonist, X4:ramp2.I:2” value ([5]; X4:ramp2 1:2) was 13.5988 and 14.044, the activation at 33.333 µM ([6]; 2 h, log [agonist] (M) -4.47712, MRGX4-transfected, individual replicates, read-out: IP1 accumulation, dose-response (Figure 1a)) was 16.7% and the activation at 11.111 µM ([6]; 2 h, log [agonist] (M) -4.95424, MRGX4-transfected, individual replicates, read-out: IP1 accumulation, dose-response (Figure 1a)) was 14.8%. The activation at 1.2346 µM ([6]; 2 h, log [agonist] (M) -5.90849, MRGX4-transfected, individual replicates, read-out: IP1 accumulation, dose-response (Figure 1a)) was 12.9%, the activation at 0.4115 µM ([6]; 2 h, log [agonist] (M) -6.38561, MRGX4-transfected, individual replicates, read-out: IP1 accumulation, dose-response (Figure 1a)) was 12.7% and the activation at 0.13717 µM ([6]; 2 h, log [agonist] (M) -6.86273, MRGX4-transfected, individual replicates, read-out: IP1 accumulation, dose-response (Figure 1a)) was 12.1%. For the same molecule, the “response to agonist, MRGPRX4” value ([6]; Figure 4c-f, agonist 100µM, MRGPRX4 alone (reference = 100)) was 100 and the “IP1 Basal” value ([6]; MRGPRX4 (Fig. 1A), HEK293T, normalized to 100 μM nateglinide) was 13.66.
